# According to patent US11752126B2, “Stable cannabinoid compositions” (Sino-German M&A Service GmbH, priority 2017, dated 2023):
# Assay: THC content over time in different stabilizing systems (FIG. 1)
# Type: physicochemical
# Excerpt: In the lower data set, the initial concentration of THC is reduced to 91% at day 93 with respect to the initial concentration of THC at day 0.
smiles,measurement,setting,value
"CCCCCc1cc(O)c2c(c1)OC(C)(C)[C@@H]1CCC(C)=C[C@@H]21 [THC, tetrahydrocannabinol]",evolution of the relative concentration of tetrahydrocannabinol (THC),"system including 1 weight percent tocopherol, over time",nearly flat over time
same,relative concentration of tetrahydrocannabinol (THC),"system including no tocopherol, day 93, with respect to the initial concentration of THC at day 0",91%
